Cl.OC(CCCN1CCCCC1)(c1ccccc1)c1ccccc1
solubility (mole fraction)
Conditions | 278.15 K | 283.15 K | 288.15 K | 293.15 K | 298.15 K | 303.15 K | 308.15 K | 313.15 K | 318.15 K | 323.15 K
in DMAc | 0.00189 | 0.00221 | 0.00254 | 0.00305 | 0.00357 | 0.00407 | 0.00457 | 0.00525 | 0.00596 | 0.00697
in DMF | 0.00285 | 0.00316 | 0.00357 | 0.00408 | 0.00466 | 0.00515 | 0.00615 | 0.00688 | 0.00811 | 0.00923
in DMSO | – | – | – | 0.0121 | 0.0134 | 0.0148 | 0.0167 | 0.019 | 0.0213 | 0.0242
in NMP | 0.00427 | 0.00492 | 0.0056 | 0.00616 | 0.00725 | 0.00826 | 0.00921 | 0.0104 | 0.012 | 0.0141
in acetic acid | – | – | – | 0.00434 | 0.00601 | 0.00965 | 0.016 | 0.0263 | 0.0428 | 0.0632
in acetonitrile | 0.000127 | 0.00016 | 0.000224 | 0.000306 | 0.000412 | 0.000497 | 0.000623 | 0.000747 | 0.000892 | 0.00105
in ethanol | 0.00161 | 0.00196 | 0.00227 | 0.00275 | 0.00336 | 0.00405 | 0.00485 | 0.00585 | 0.00706 | 0.00867
in methanol | 0.00929 | 0.0109 | 0.0127 | 0.0152 | 0.0177 | 0.0207 | 0.0245 | 0.0285 | 0.0337 | 0.0397
in n-butanol | 0.000548 | 0.000685 | 0.000907 | 0.00113 | 0.00137 | 0.00169 | 0.00206 | 0.00247 | 0.00304 | 0.00398
in n-pentanol | 0.000228 | 0.000359 | 0.000562 | 0.00075 | 0.000981 | 0.00121 | 0.00164 | 0.00212 | 0.00265 | 0.00327
in n-propanol | 0.00115 | 0.00151 | 0.00199 | 0.0025 | 0.00255 | 0.00309 | 0.00364 | 0.00454 | 0.00575 | 0.00708
in water | 0.000935 | 0.001 | 0.00112 | 0.00125 | 0.00135 | 0.0015 | 0.00165 | 0.00173 | 0.00193 | 0.00216

From BigSolDB 2.1
